Key:
[1] = tested on: platelet aggregation (platelet rich plasma); assay: Platelet aggregation inhibitory activity, collagen-induced (Pharmacological test 1); format: cell-based, human beings; conditions: Homo sapiens, Collagen (1 to 4 μg/ml), read-out: Platelet aggregation inhibitory rate (%); for inhibition at 100 µM: Conc. 10^-4 mol; for inhibition at 10 µM: Conc. 10^-5 mol; for inhibition at 1 µM: Conc. 10^-6 mol
Protocol: (§1) The platelet aggregation inhibitory activity of test compounds was measured in accordance with the method of Born et al. [J. Physiol., London, 162, 67, (1962)] using a platelet aggregator [Platelet Aggregation Tracer manufactured by Niko Biosceince K.K.].
(§2) To 9 volumes of blood taken from human beings was added 1 volume of 3.8% citric acid and this sample was centrifuged at 1100 rpm for 10 minutes to give a platelet rich plasma (PRP). The remaining sample was further centrifuged at 3000 rpm for 15 minutes to give a platelet poor plasma (PPP).
(§3) The platelets in the PRP obtained above was counted using Coulter Counter, Coulter electronics inc. and diluted to 300000 platelets/μl with the PPP to prepare a PRP solution.
(§4) A cell for measurement of aggregation was charged with a solution containing a fixed concentration of test compounds (1 to 2 μl) and the PRP solution prepared above (200 μl) and warmed at 37° C. for 1 minute. Then, to the cell was added a suspension of adenosine diphosphate (ADP, manufactured by Sigma) or collagen (Collagen Reagent Horm, manufactured by Hormon-Chemie) to induce platelet aggregation and the transparency of the cell was measured and a platelet aggregation curve was prepared. The final concentration of the above ADP and the collagen was adjusted to 14 to 16 μM and 1 to 4 μg/ml, respectively.
(§5) Maximum Aggregation Rate (MAR) of platelets was calculated from the platelet aggregation curve by the following formula: […]
(§6) wherein (a) represents the transparency of PRP measured in the similar test, (b) represents the transparency of the PRP solution containing the test compound and the aggregation inducer at the time of maximum change in the above test, and (c) represents the transparency of the PPP solution measured in the similar test.
(§7) MAR for control with no addition of the test compound was also calculated, and based on this value, the platelet aggregation inhibitory rate (%) of each test compound at various concentrations in the above test was calculated from the following formula:
(§8) Inhibitory rate=[1-(MAR of PRP with addition of test compound)/(MAR of PRP
(§9) with no addition of test compound)]×100

[2] = tested on: platelet aggregation (platelet rich plasma); assay: Platelet aggregation inhibitory activity, ADP-induced (Pharmacological test 1); format: cell-based, human beings; conditions: Homo sapiens, ADP (14 to 16 μM), read-out: Platelet aggregation inhibitory rate (%); for inhibition at 100 µM: Conc. 10^-4 mol; for inhibition at 10 µM: Conc. 10^-5 mol; for inhibition at 1 µM: Conc. 10^-6 mol
Protocol: as §1, §2, §3, §4, §5, §6, §7, §8, §9

C-AMP phosphodiesterase = C-AMP phosphodiesterase inhibitory activity (Pharmacological test 2); format: biochemical, dog; conditions: C-AMP 0.4 μmol
[3] = tested on: aggregates of platelet (platelet rich plasma); assay: Platelet aggregate dissociation, collagen-induced aggregates (Pharmacological Test 4); format: cell-based, human beings; conditions: Homo sapiens, 5 min, after 5 minutes, read-out: Platelet aggregate dissociation rate (%)
Protocol: as §2, §3
(§10) In the same manner as in the above test 1, the obtained PRP solution (200 μl ) was put in cell for measurement of aggregation and the cell was warmed at 37° C. for 1 minute. Thereto was added ADP or collagen suspension (final concentration of 14 to 16 μM and 1 to 4 μg/ml, respectively) without addition of the test compound to form aggregates of platelet. MAR was determined after stable transparency was obtained. This MAR was referred to as "MAR-1". Then, the test compound was added and MAR was determined from the transparency after 5 minutes. This MAR was referred to as "MAR-2".
(§11) Platelet aggregate dissociation rate (%) was calculated in accordance with the following formula: […]
(§12) Platelet aggregate dissociation rate
(§13) (%)=[(MAR-1)-(MAR-2)]/(MAR-1)×100

Cerebellum blood flow = assay: Topical blood flow in the cerebellum, colored microspheres, anesthetized dog (Pharmacological Test 3); format: in vivo, hybrid dog
Brain blood flow = assay: Topical blood flow in the brain, colored microspheres, anesthetized dog (Pharmacological Test 3); format: in vivo, hybrid dog
[4] = tested on: aggregates of platelet (platelet rich plasma); assay: Platelet aggregate dissociation, ADP-induced aggregates (Pharmacological Test 4); format: cell-based, human beings; conditions: Homo sapiens, 5 min, after 5 minutes, read-out: Platelet aggregate dissociation rate (%)
Protocol: as §2, §3, §10, §11, §12, §13

[5] = 3 μg/kg/min i.v. over 30 minutes
[6] = 10 μg/kg/min i.v. over 30 minutes

Compound | inhibition at 100 µM [1] | inhibition at 10 µM [1] | inhibition at 1 µM [1] | inhibition at 100 µM [2] | inhibition at 10 µM [2] | inhibition at 1 µM [2] | Phosphodiesterase inhibitory rate (%) (C-AMP phosphodiesterase; Conc. 10^-4 mol) | Phosphodiesterase inhibitory rate (%) (C-AMP phosphodiesterase; Conc. 10^-5 mol) | inhibition at 10 µM ([3]; Conc. 10 μmol) | inhibition at 30 µM ([3]; Conc. 30 μmol) | inhibition at 100 µM ([3]; Conc. 100 μmol) | Increasing rate of blood flow (%) (Cerebellum blood flow; [5]) | Increasing rate of blood flow (%) (Cerebellum blood flow; [6]) | Increasing rate of blood flow (%) (Brain blood flow; [5]) | Increasing rate of blood flow (%) (Brain blood flow; [6]) | inhibition at 10 µM ([4]; Conc. 10 μmol) | inhibition at 30 µM ([4]; Conc. 30 μmol) | inhibition at 100 µM ([4]; Conc. 100 μmol)
CN(Cc1ccccc1)CC(O)COc1ccc2[nH]c(=O)ccc2c1 (stereo not shown) [compound 1] | 96.3% | 70.7% | 3.8% | 79% | 31.7% | 14.9% |  |  |  |  |  |  |  |  |  |  |  | 
COc1cccc(CNCC(O)COc2ccc3[nH]c(=O)ccc3c2)c1 (stereo not shown) [compound 2] | 97.2% | 95.7% | 23.1% | 89.1% | 43.9% | 14.9% | 2.32% | 48.63% |  |  |  |  |  |  |  |  |  | 
O=c1ccc2cc(OCC(O)CNCc3ccc(Cl)cc3)ccc2[nH]1 (stereo not shown) [compound 3] | 97.8% | 96.7% | 17% | 78.2% | 44.5% | 13.2% | 32.46% | 86.11% |  |  |  |  |  |  |  |  |  | 
CN(Cc1ccccn1)CC(O)COc1ccc2[nH]c(=O)ccc2c1 (stereo not shown) [compound 4] | 97.2% | 64.3% |  | 77.5% | 30.5% | 13.5% |  |  |  |  |  |  |  |  |  |  |  | 
CN(CCN(C)c1ccccc1)CC(O)COc1ccc2[nH]c(=O)ccc2c1 (stereo not shown) [compound 5] | 96.5% | 72.9% | 44.4% | 84.8% | 38.4% | 21.6% |  |  |  |  |  |  |  |  |  |  |  | 
COc1ccc(CNCC(O)COc2ccc3[nH]c(=O)ccc3c2)cc1 (stereo not shown) [compound 6] | 97% | 96.7% | 17% | 77.5% | 43.8% | 7.4% |  |  |  |  |  |  |  |  |  |  |  | 
COc1ccc(CNCC(O)COc2ccc3[nH]c(=O)ccc3c2)cc1OC (stereo not shown) [compound 7] | 96.9% | 91.6% | 4.1% | 96.4% | 39% | 9.5% | 15.27% | 72.39% | 13.3% | 26.7% | 28% | 15.2 ± 11.5% | 29.7 ± 11.5% | 25.9 ± 7.0% | 57.8 ± 10.9% | 41.5% | 43.3% | 71.7%
O=c1ccc2cc(OCC(O)CNCc3cccc(Cl)c3)ccc2[nH]1 (stereo not shown) [compound 8] | 93.1% | 27.7% | 12.3% | 62% | 27.4% | 5.1% |  |  |  |  |  |  |  |  |  |  |  | 
CCOc1ccc(CNCC(O)COc2ccc3[nH]c(=O)ccc3c2)cc1OCC (stereo not shown) [compound 9] |  |  |  |  |  |  | 50.63% | 89.07% |  |  |  |  |  |  |  |  |  | 
O=c1ccc2cc(OCC(O)CN(CCO)Cc3ccc(F)cc3)ccc2[nH]1 (stereo not shown) [compound 10] |  |  |  |  |  |  | 23.90% | 74.63% |  |  |  |  |  |  |  |  |  | 
